The source of these data is patent EP2545917B1, “NOVEL EP4 AGONIST” (Kaken Pharmaceutical Co., Ltd., priority 2010, dated 2011).

Data set [1] deals with dextran sodium sulfate-induced colitis. Briefly: Dextran sodium sulfate-induced colitis model in mice (C57BL/6). The format is in vivo. Particulars: C57BL/6 mice, DSS, oral 0.3 mg/kg once a day. How it is done:
Female C57BL/6 mice (6 weeks old, Japan SLC) were purchased, acclimated for 1 week and used for the study. Except the normal group, the mice were allowed to freely drink a 3 or 2 w/v% DSS (MP Biochemicals, Lot No. 5653H and 5464H, respectively) solution for 1 week to induce colitis. BPS at a dose of 0.3 mg/kg and compound F at doses of 0.3 and 1 mg/kg were orally administered once a day, daily, from the start day of DSS drinking (day 0) to one day before autopsy (day 9). To the control group was orally administered a solvent (1 vol% ethanol solution) at 10 mL/kg in the same manner. The consistency of the stool was graded from score 0 to 4, with normal (0), partly loose stool (1), loose stool (2) and diarrhea (4). The blood feces was also graded from score 0 to 4, with normal (0), partly blood feces (1), blood feces (2) and blood feces plus proctorrhagia (4). The sum of both grades was defined as the stool score (maximum 8). Furthermore, the length of the large intestine was measured in the same manner as in Example 23. Six to 10 animals were used for each group, and the results are shown in average ± standard deviation.

The target of data set [2] is T1, Human EP4 (Homo sapiens, UniProt P35408).
T1 construct: expressed in transfected cells; host or cells: COS-7
T1 sequence (P35408 whole entry): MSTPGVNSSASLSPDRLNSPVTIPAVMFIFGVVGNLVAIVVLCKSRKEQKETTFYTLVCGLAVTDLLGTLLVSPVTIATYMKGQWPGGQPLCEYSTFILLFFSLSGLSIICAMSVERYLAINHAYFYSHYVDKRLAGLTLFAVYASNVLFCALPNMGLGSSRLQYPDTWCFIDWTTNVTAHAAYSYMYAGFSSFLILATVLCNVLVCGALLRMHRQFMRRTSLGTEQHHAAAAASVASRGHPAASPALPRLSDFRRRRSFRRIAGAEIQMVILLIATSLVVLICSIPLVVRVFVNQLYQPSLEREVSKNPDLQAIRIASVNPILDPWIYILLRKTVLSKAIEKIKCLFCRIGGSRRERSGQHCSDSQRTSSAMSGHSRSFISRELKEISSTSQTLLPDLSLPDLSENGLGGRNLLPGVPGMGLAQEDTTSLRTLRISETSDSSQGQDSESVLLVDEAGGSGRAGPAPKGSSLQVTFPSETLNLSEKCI
Briefly: EP4 agonist activity, CRE-LUC reporter gene in transfected COS-7 cells. It is filed as cell-based. The protocol:
In brief, human EP4 gene and CRE-LUC reporter gene were transfected into COS-7 cells. The cells were treated with a test compound one day later, and incubated for 3 hr. The cells were washed, a luminescence substrate was added, and the luminescence intensity was measured for the agonist activity.

In data set [3] the test system is blood pressure and heart rate. Briefly: Effect on blood pressure and heart rate in mice. The format is in vivo, ICR mice. To be noted: intravenous 0.01 mg/5 mL/kg, isoflurane anesthesia. How it is done:
Male ICR mice (5 weeks old, Japan SLC) were purchased, acclimated for 6 days and used for the test. The animals were treated and measured under isoflurane inhalation anesthesia (anesthesia introduced at 2.5%, maintained at 1.8-2.1%), while body temperature was kept at 37°C with a Heat Controller (ATC-402, Unique Medical Co., Ltd.). A catheter for administration of test compounds was inserted into the left femoral vein, and another catheter was inserted into the right femoral artery and connected to a pressure transducer to record each parameter of hemodynamics.
Compound F, the carboxylate form of compound F and BPS were intravenously administered at a dose of 0.01 mg/5 mL/kg, and the effect on the mean blood pressure and heart rate was evaluated with computer software for the analysis of hemodynamics (Fluclet, Dainippon Sumitomo Pharma Co., Ltd.). To the control group was intravenously administered a solvent (1.2% ethanol solution) at 5 mL/kg in the same manner. The results are expressed as a ratio of change in each parameter before and after the drug administration. Three to 6 animals were used for each group, and the results were expressed as average ± standard deviation.

Data set [4] concerns the target T1, Human EP4. Briefly: Receptor affinity, tritium-labeled PGE2 binding to membranes of transfected COS-7 cells. How it is done:
(§1) COS-7 cells were transfected with the genes of mouse EP4, human EP1-4 or human IP to overexpress the receptor and then the cell membranes were collected. […] The dissociation constant Kd value was obtained and inhibition constant Ki value of each test compound was determined in a conventional method.

Another data set deals with T2, Human EP3 (Homo sapiens, UniProt P43115).
T2 construct: expressed in transfected cells; host or cells: COS-7
T2 sequence (P43115 1-390): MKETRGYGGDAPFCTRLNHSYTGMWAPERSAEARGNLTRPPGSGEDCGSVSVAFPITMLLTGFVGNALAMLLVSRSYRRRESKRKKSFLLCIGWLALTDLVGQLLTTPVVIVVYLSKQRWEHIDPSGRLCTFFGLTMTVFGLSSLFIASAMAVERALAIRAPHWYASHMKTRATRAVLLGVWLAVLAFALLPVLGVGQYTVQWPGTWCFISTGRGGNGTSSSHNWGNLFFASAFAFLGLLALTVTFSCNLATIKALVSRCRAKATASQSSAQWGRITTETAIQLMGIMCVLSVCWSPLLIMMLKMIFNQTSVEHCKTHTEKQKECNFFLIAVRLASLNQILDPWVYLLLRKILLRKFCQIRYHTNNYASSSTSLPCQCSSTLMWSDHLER
The data set is described as above. The protocol:
as §1

The target in a further data set is T3, Human EP2 (Homo sapiens, UniProt P43116).
T3 construct: expressed in transfected cells; host or cells: COS-7
T3 sequence (P43116 whole entry): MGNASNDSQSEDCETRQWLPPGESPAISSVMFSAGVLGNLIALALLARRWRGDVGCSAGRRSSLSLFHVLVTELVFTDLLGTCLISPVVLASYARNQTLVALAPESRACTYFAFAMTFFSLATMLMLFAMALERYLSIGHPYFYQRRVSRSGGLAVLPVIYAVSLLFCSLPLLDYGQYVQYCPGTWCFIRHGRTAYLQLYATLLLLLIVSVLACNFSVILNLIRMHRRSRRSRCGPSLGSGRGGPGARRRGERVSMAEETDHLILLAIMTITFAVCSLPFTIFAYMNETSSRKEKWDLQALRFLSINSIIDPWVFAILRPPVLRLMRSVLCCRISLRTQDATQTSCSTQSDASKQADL
Described as above. The protocol:
as §1, with “PG receptor affinity of compound F and compound J of the present invention was evaluated. Compound F used was one synthesized in Example 9, and compound J was prepared by separating and purifying the compound synthesized in Example 14 with a column (the same preparations were used in the following Examples). COS-7” for “COS-7”

Data set [5] concerns Human Platelet Aggregation. Briefly: Inhibitory effect on ADP-induced platelet aggregation in platelet-rich plasma. The format is cell-based. To be noted: ADP 10 µmol/L, geometric mean of three volunteers. How it is done: The inhibitory effect of compounds F and J, and carboxylate forms thereof on platelet aggregation was evaluated. The carboxylate forms were prepared by separating and purifying the compound synthesized in Example 15 with a column. Blood was drawn from 3 healthy volunteers using sodium citrate as an anticoagulant, and platelet-rich plasma was prepared. The platelet-rich plasma was treated with physiological saline or test compounds and, 2 min later, platelet aggregation was induced with adenosine diphosphate (ADP, final concentration 10 µmol/L) and recorded with a platelet aggregation measurement apparatus (nephelometry).

The target of another data set is T4, Human EP1 (Homo sapiens, UniProt P34995).
T4 construct: expressed in transfected cells; host or cells: COS-7
T4 sequence (P34995 1-402): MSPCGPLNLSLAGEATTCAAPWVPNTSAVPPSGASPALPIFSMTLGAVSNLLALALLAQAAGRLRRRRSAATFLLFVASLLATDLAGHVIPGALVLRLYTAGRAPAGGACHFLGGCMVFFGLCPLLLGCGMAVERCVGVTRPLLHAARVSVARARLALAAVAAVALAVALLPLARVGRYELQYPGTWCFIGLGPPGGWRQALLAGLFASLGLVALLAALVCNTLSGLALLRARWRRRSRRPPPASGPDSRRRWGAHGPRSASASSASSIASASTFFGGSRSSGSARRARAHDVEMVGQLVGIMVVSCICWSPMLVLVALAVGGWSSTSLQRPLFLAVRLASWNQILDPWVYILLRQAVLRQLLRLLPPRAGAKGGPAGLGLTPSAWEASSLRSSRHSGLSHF
Briefly: Receptor affinity, tritium-labeled PGE2 binding to membranes of transfected COS-7 cells. The protocol: (§2) PG receptor affinity of compound F and compound J of the present invention was evaluated. Compound F used was one synthesized in Example 9, and compound J was prepared by separating and purifying the compound synthesized in Example 14 with a column (the same preparations were used in the following Examples). COS-7 cells were transfected with the genes of mouse EP4, human EP1-4 or human IP to overexpress the receptor and then the cell membranes were collected. As a labeled ligand, tritium-labeled PGE2 was used for EPs; tritium-labeled iloprost, for IP. The dissociation constant Kd value was obtained and inhibition constant Ki value of each test compound was determined in a conventional method. As a reference control, PGE2 was used for EPs; beraprost sodium (BPS), for IP.

In a further data set the target is T5, Human IP (Homo sapiens, UniProt P43119).
T5 construct: expressed in transfected cells; host or cells: COS-7
T5 sequence (P43119 whole entry): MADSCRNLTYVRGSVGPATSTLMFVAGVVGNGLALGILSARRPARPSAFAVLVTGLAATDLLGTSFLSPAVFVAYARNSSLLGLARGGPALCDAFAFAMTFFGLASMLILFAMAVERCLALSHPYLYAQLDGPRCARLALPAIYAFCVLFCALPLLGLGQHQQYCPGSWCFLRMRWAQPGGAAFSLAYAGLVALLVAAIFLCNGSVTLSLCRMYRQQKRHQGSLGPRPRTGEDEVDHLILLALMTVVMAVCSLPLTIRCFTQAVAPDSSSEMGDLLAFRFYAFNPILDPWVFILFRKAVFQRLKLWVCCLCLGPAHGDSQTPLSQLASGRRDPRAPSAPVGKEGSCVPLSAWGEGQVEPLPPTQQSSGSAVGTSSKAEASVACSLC
Briefly: Receptor affinity, tritium-labeled iloprost binding to membranes of transfected COS-7 cells. Particulars: COS-7 cell membranes. The protocol:
as §2

The next data set has as its system TNF-α. Briefly: Suppressive effect on cytokine production, CD4 positive T cells stimulated with anti-CD3 and anti-CD28 antibody, ELISA. Particulars: human CD4 positive T cells, anti-CD3/anti-CD28, 24 hr; geometric mean of three volunteers. The format is cell-based. How it is done: (§3) Blood was collected from 3 healthy volunteers, and CD4 positive T cells were prepared. […] In both cases, the test compound was added 30 min before stimulation.

For a further data set, the system named is IL-2. The data set is described as above. It is filed as cell-based. Particulars: human CD4 positive T cells, anti-CD3/anti-CD28, 24 hr; geometric mean of three volunteers. The protocol:
as §3

A further data set has as its target T6, Mouse EP4 (Mus musculus, UniProt P32240).
T6 construct: expressed in transfected cells; host or cells: COS-7
Briefly: Receptor affinity, tritium-labeled PGE2 binding to membranes of transfected COS-7 cells. The protocol: as §2, with “As a labeled ligand, tritium-labeled PGE2 was used for EPs; tritium-labeled iloprost, for IP.” left out, “method.” for “method. As a reference control, PGE2 was used for EPs; beraprost sodium (BPS), for IP.”

A short description of data set [6]: Plasma pharmacokinetics after intravenous administration to rats. The format is in vivo. Particulars: male, rat. The protocol: To verify the in vivo metabolic stability of the compound of the present invention, plasma pharmacokinetics was evaluated after intravenous administration to rats. Male rats (6 weeks old, body weight 160 - 180 g) were acclimated for 1 week, and the animals diagnosed healthy were used. A mixture of compound F and compound J of the present invention described in Table 1 (F:J = 52:41), and a mixture of carboxylate forms of compound F and compound J (F:J = 54:34), and compound F (synthesized in Example 9) were dissolved in a small amount of ethanol and physiological saline was added to prepare test compound solutions. The test compound solutions were instantaneously administered intravenously at 1 mL/kg from the femoral vein of non-fasting rats under light ether anesthesia. Venous blood was drawn from the tail vein 5, 15, 30, 45, 60, 90 and 120 min after administration. The blood was mixed with heparin and centrifuged (3000 rpm, 4°C, 15 min) to obtain plasma. The plasma compound concentration was determined by the internal standard method using LC-MS/MS. The determination range by this method was from 0.1 to 100 ng/mL. The compound concentrations obtained from each rat were analyzed in a model-independent way using a pharmacokinetics analysis software WinNonlin (ver.3.3), and average ± standard deviation of 3 animals for each group was obtained.

Data set [7] can be described thus: In vitro metabolic stability: β-oxidation reaction in rat liver mitochondria fraction. The format is in vitro ADME. To be noted: parent compound after NADPH-independent β-oxidation reaction, 37°C, 30 min, tested as isomer mixtures, average ± SD of 3 experiments. How it is done: A mixture of the compound F and compound J of the present invention described in Table 1 (F:J = 52:41, synthesized in Example 14), and a mixture of compounds wherein the tetrazole groups at C-1 of compound F and compound J are respectively substituted by carboxylic acid (referred to as carboxylate form, F:J = 54:34, synthesized in Example 15) were tested.
First, a mitochondria fraction was prepared from the rat liver according to the following Reference A. Then, in reference to the method of […] et al. described in the following References B and C, an NADPH-independent β oxidation reaction was studied. The reaction was carried out at 37°C for 30 min, and stopped with a methanol solution containing a suitable internal standard substance. Each compound was quantified by the internal standard method using a high performance liquid chromatography mass spectrometry apparatus (LC-MS/MS). The compound residual ratio after metabolic reaction of compounds F, J and each carboxylate form thereof in rat mitochondria fraction is shown in the following Table 2 in average ± standard deviation of 3 experiments. Table 2 Residual Ratio of Parent Compound after β-Oxidation Reaction

The subject of a further data set is IP-10. Briefly: Suppressive effect on cytokine production, whole blood stimulated with lipopolysaccharide, ELISA. The format is cell-based. Particulars: human whole blood, indometacin, 48 hr, geometric mean of three volunteers.

T6 sequence (P32240 whole entry): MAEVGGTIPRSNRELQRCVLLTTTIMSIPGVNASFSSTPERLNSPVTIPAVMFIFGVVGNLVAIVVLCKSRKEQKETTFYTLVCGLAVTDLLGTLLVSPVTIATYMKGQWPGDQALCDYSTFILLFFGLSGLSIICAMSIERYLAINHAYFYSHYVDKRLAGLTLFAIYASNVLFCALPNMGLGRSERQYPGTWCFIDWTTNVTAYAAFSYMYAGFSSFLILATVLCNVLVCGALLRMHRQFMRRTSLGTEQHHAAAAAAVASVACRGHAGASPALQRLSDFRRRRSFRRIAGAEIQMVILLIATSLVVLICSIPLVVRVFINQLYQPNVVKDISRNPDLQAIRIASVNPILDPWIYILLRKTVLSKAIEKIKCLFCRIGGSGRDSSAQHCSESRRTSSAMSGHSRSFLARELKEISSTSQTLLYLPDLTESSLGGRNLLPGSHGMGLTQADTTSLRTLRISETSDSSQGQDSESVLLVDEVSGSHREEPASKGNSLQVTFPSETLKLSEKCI

A word on the EC50: it is the concentration giving half of the maximal effect. Higher therefore signals weaker potency. For orientation: Ki means the equilibrium dissociation constant of an inhibitor or competing ligand from its target. A lower Ki goes with higher affinity. Broadly, the IC50 is the concentration needed to halve the response being measured. A lower IC50 goes with inhibition by little substance. On to `CC#CCC(C)[C@H](O)/C=C/[C@@H]1[C@H]2c3cccc(CCCC(=O)O)c3O[C@H]2C[C@H]1O` (mixture of isomers) [BPS, beraprost sodium, reference compound], for which, in data set [1], the “effect on stool score” value is given as “not effective, but rather showed a tendency toward aggravation of the stool score”. The “effect on the shortening of the large intestine” value in data set [1] is given as “no effect on the shortening of the large intestine”. On Human EP4 [2], this compound came in with an EC50 above 1000 nM. The “effect on heart rate” value in data set [3] was “on the increase and remained high even after 10 min”. For the same compound, in [3], the “maximum decrease ratio of mean blood pressure” value is recorded as 38%. Also, the inhibition constant (Ki) stood at 6150 nM on Human EP4 [4]; 946 nM at Human EP3; 4990 nM on Human EP2; 942 nM on Human EP1; 160 nM on Human IP. The compound also had a 50% inhibitory concentration (IC50) in data set [5] of 36 nM.
By half-life is commonly meant the time in which the quantity being followed falls by half. A higher half-life goes with slow loss. Turning to `Cc1cccc([C@H](C)[C@H](O)/C=C/[C@@H]2[C@@H]3[C@H](C[C@H]2O)O/C(=C\CCCc2nnn[nH]2)C3(F)F)c1` [Compound J, 4-[(Z)-(1S,5R,6R,7R)-6-[(1E,3R,4S)-3-hydroxy-4-(m-tolyl)-1-pentenyl]-7-hydroxy-2-oxa-4,4-difluoro-bicyclo[3.3.0]octan-3-ylidene]-1-(tetrazol-5-yl)butane], at Human EP4 [2], the half-maximal effective concentration (EC50) was 440 nM. Moreover, the concentration for half-maximal inhibition (IC50) with TNF-α was 89.5 nM; in the data set with IL-2 it was 64 nM; in data set [5], 2720 nM; in the data set with IP-10, 102 nM. For the same compound, the Ki at Human EP4 [4] stood at 83 nM; on Human EP3 it was 1500 nM; at Mouse EP4 it was 590 nM; at Human EP2 it was 5400 nM; on Human EP1 it was 4600 nM; on Human IP, 3400 nM. Also, at Human EP4 [4] (ratio of Ki values), the “affinity for binding to human EP4 higher than that to human IP” value was 40 fold. Also, the half-life is 1.28 ± 0.317 h in [6] (iv, 50 ug/kg) and 1 to 2 h in data set [6] (rats, intravenous, summary of Table 3). Besides, the Residual ratio in [7] was 90.1±6.9%.
In the case of `CCCCC[C@H](O)/C=C/[C@H]1[C@H](O)CC(=O)[C@@H]1C/C=C\CCCC(=O)O` [PGE2, reference compound], half-maximal inhibition in the data set with IL-2 (IC50) was put at 0.062 nM. The compound further returned a Ki on Human EP1 of 2.9 nM.
